{"source": "patent US20240082431A1", "about": "“METALLOHYDROPORPHYRINS FOR PHOTOACOUSTIC IMAGING” (NIRvana Sciences, Inc., priority 2021, published 2024)", "assay": "Photoacoustic imaging of dyes in agar phantoms (VEVO LAZR 2100, PA scanning mode 680-900 nm)", "format": "physicochemical", "settings": "agar phantom, 63 μM B107, 50 μM ICG in DMF", "method": "Indocyanine Green (ICG), was obtained from Sigma-Aldrich (Catalogue No. I2633; Sigma-Aldrich Corp., St. Louis, Missouri, United States of America). The nickel bacteriochlorin B107 was prepared as described in Sun et al., 2013 and Chen et al, 2012. Each dye was dissolved in N,N-dimethylformamide (DMF) at the desired concentrations prior to the imaging experiments. Molds for preparing agar phantoms were typically 90 mm diameter glass Petri dishes.\nA highly purified agar powder (Catalogue No. A7921; Sigma-Aldrich Corp., St. Louis, Missouri, United States of America) was dissolved in water (Reagent Grade, Type I) to a final concentration of 2.0% and heated to the melting temperature of 95° C. in a microwave oven. […] The bottle containing agar was held at 75-85° C. for 1-3 hours using a standard hot plate and a double boiler to avoid scorching (which causes a detectable increase in the absorption coefficient). This waiting period at an elevated temperature allows the slow release of air bubbles and produces an agar solution with negligible absorption and very low turbidity. […]\nPhotoacoustic imaging was performed using a VEVO® LAZR^2100 imaging system (VisualSonics, Inc., Toronto, Ontario, Canada) equipped with software version 1.7.2. […] The tubing and its associated image regions were isolated by ultrasound and PA signals for PA intensity quantitation. […]", "data": [{"smiles": "CC1(C)C(/C=C/C=C/C=C/C=C2\\N(CCCCS(=O)(=O)O)c3ccc4ccccc4c3C2(C)C)=[N+](CCCCS(=O)(=O)[O-])c2ccc3ccccc3c21", "note": "[ICG, Indocyanine Green]", "values": [{"measurement": "Max (nm) of PAI signal", "setting": "depth 3 mm", "result": 790, "unit": "nm"}, {"measurement": "Max (nm) of PAI signal", "setting": "depth 6 mm", "result": 795, "unit": "nm"}]}]}
